# Measurements reported in article PMC3002932 (PLoS ONE, 2010).
# Entries after “also recorded” stand apart in the source; their conditions may differ. Read-outs that look alike come from different tables or passages of the source.
# Key:
# [1] = tested on: viral glycoproteins (GRFN-1 binding; gp120LAV chip); test: SPR competition of saccharides with GRFN-1 binding; parameters: species or system HIV-1
# Description: α-D-mannopyranose (Man), L-fucopyranose (Fuc), α-D-galactopyranose (Gal), sialic acid (N-acetyl-neuraminic acid, Neu5Ac), N-acetyl-glucosamine (GlcNAc) and Man3(GlcNAc)2, a core pentasaccharide found in most N-linked oligosaccharides. All of these saccharides were purchased from Sigma-Aldrich (St. Louis, MO).
# CXCR4 (HIV-1IIIB) = test: p24^gag antigen release assay using PBMCs, CXCR4 strain; type: cell-based; settings: PBMC based p24^gag antigen release assay
# HIV-1 (BaL) = type: cell-based; settings: TZM-bl assay; for EC50: HIV-1 BaL (R5), 24 hr, luciferase activity
# Description: The ability of the analogs to inhibit HIV infection was determined with an assay that determines viral infectivity with an LTR-mediated luciferase reporter construct [37]. In brief, TZM-bl reporter cells are HeLa-derived JC53-BL cells that express high levels of CD4, CXCR4, and CCR5. They also contain reporter cassettes for luciferase and β-galactosidase, both driven by the HIV-1 long terminal repeat [38]). 24 hr after these reporter cells were exposed to R5 lab-adapted strains of HIV-1 (BaL) in the presence of peptides, protection was measured as % reduction in luciferase activity (relative light units) compared to cells infected with virus and peptide vehicle alone.
# HIV-1 = settings: read-out: average EC50; anti-HIV inhibitory activity; ref [20], [21]; cited from earlier work
# Description: Preventing HIV-1 infection is the primary goal of pre- and post-exposure prophylaxis of HIV. Prophylactic modalities that block HIV-1 entry would be particularly valuable, because latent HIV-1 infections are typically refractory to therapeutic or immunological interventions [1]–[9]. […] Most anti-HIV lectins have been identified in and isolated from natural sources. They include cyanovirin-N [11], [12] and scytovirin [13] from cyanobac ...
# CCR5 (HIV-1BAL) = test: p24^gag antigen release assay using PBMCs, CCR5 strain; type: cell-based; settings: PBMC based p24^gag antigen release assay
compound,measurement,setting,value
"OC[C@H]1O[C@H](O)[C@@H](O)[C@@H](O)[C@@H]1O [mannose, α-D-mannopyranose]",competition with binding of GRFN-1 to viral glycoproteins (in words),[1]; pH = 7.4,"interacted with all of these sugars, except fucose; also recorded: the most effective competitors"
same,competition with binding of GRFN-1 to viral glycoproteins (in words),"[1]; pH = 7.4, listed as D-Mannose",especially potent inhibitor that could almost completely abrogate binding of GRFN-1 to the viral glycoproteins
"O=C[C@H](O)[C@@H](O)[C@@H](O)[C@H](O)CO [galactose, α-D-galactopyranose]",competition with binding of GRFN-1 to viral glycoproteins (in words),[1]; pH = 7.4,"interacted with all of these sugars, except fucose"
griffithsin,antiviral activity (in words),CXCR4 (HIV-1IIIB),maintained their antiviral activity
same,EC50,HIV-1 (BaL); griffithsin,0.0196 ± 0.0019 nM
same,EC50,HIV-1,0.04 nM
same,antiviral activity (in words),CCR5 (HIV-1BAL),maintained their antiviral activity
"CC(=O)N[C@H]1[C@H]([C@H](O)[C@H](O)CO)OC(O)(C(=O)O)C[C@@H]1O (stereo partly drawn) [sialic acid, N-acetyl-neuraminic acid]",competition with binding of GRFN-1 to viral glycoproteins (in words),[1]; pH = 7.4,"interacted with all of these sugars, except fucose; also recorded: less profound"
"CC[C@H](C)[C@@H]1NC(=O)CNC(=O)[C@H](CCCCN)NC(=O)CNC(=O)[C@@H]2CSSC[C@H](NC1=O)C(=O)N[C@@H](CCCNC(=N)N)C(=O)N[C@H]1CSSC[C@H](NC(=O)[C@H](CCCNC(=N)N)NC(=O)[C@@H]3CSSC[C@H](NC(=O)[C@H]([C@@H](C)CC)NC1=O)C(=O)NCC(=O)N[C@@H](CCCNC(=N)N)C(=O)NCC(=O)N[C@@H]([C@@H](C)CC)C(=O)N3)C(=O)N[C@@H]([C@@H](C)CC)C(=O)N2 [RC-101, reference compound]",EC50,HIV-1 (BaL),3400 nM
"Cha-SC-Chg-R-Chg-RSGSY-Cha-DR-Ch\g-R-Chg-(D)Cys-CONH2 (disulfide) [GRFN-2, otherwise identical peptide with an Asn to Arg substitution]",antiviral activity (in words),"HIV-1 (BaL); dose response, Figure 4",considerably less active than GRFN-1
"CC(=O)N[C@@H]1[C@@H](O)[C@H](O)[C@@H](CO)O[C@H]1O [GlcNAc, N-acetyl-glucosamine]",competition with binding of GRFN-1 to viral glycoproteins (in words),[1]; pH = 7.4,"interacted with all of these sugars, except fucose; also recorded: the most effective competitors"
Man3GlcNAc2,competition with binding of GRFN-1 to viral glycoproteins (in words),[1]; pH = 7.4,"interacted with all of these sugars, except fucose"
